Data published in US7667052B2 (Eisai R&D Management Co., Ltd., priority 2003, dated 2010).
Where two headings read alike, the source gives them in different places.

Experiments:
[1] = test system: VEGF production in U251 human glioma cell; test: VEGF production suppressing action under low oxygen, ELISA; format: cell-based; settings: for VEGF production suppressing action: IC50: U251, low oxygen (2% O2) incubator 18 hours; for VEGF production suppression, in words: U251, low oxygen stimulation
Method: U251 human glioma cell cultured in DULBECCO-modified eagle medium (DMEM; manufactured by SIGMA Co., Ltd.) containing 10% fetal calf serum, penicillin (100 unit/ml) and streptomycin (100 μg/ml) was dispensed in 96-well plates by 4×10^4 cells/well. After culturing at 37° C. overnight in a CO2 incubator (5% CO2), the media were removed, and 180 μl of the above-mentioned incubation solution was charged. After adding 20 μL of the above-mentioned incubation solution containing the test compound diluted with 3-fold succession, they were incubated in a low oxygen (2% O2) incubator for 18 hours. The supernatants thereof were measured by an ELISA kit (Immunobiology Research Institute).
Concentration at which the amount of VEGF expressed by low oxygen stimulation was suppressed to 50% (IC50 value) was determined and results are shown in Table 9. […] The activities of 11107F and 11107G were very weak.

[2] = Solubility (physico-chemical properties of the 11107 analogues); settings: in dimethylsulfoxide, pyridine, methanol, acetone and water
[3] = test system: transcription from VEGF promoter; test: VEGF transcription-suppressing activity, VEGF-PLAP reporter in U251/1-8 cell; format: cell-based; settings: Homo sapiens, U-251, U251/1-8 cell, PLAP activity, low oxygen 18 hours
Summary of the method: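 U251 glioma clone stably carrying a ~2.3 kb human VEGF promoter–secreted PLAP reporter, 4×10^4 cells/well, exposed to 3-fold dilutions of compound for 18 h under low oxygen. Supernatant PLAP read by chemiluminescence at pH 10.0; IC50 = 50% suppression, normoxia 0%, hypoxia 100%.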

[4] = read-out: IC50 values of VEGF transcription-suppressing activity (range given)
[5] = read-out: VEGF transcription suppressing activity (IC50: nM)

Row | SMILES | VEGF production suppressing action: IC50 [1] | Solubility [2] | IC50 [3, 4] | VEGF production suppression, in words [1] | IC50 [3, 5]
1 | CCC(O)C(C)C1OC1CC(C)(O)/C=C/C=C(\C)C1OC(=O)CC(O)CCC(C)(O)C(OC(C)=O)/C=C/C1C (stereo not drawn) [11107 D] | 0.0032 µg/mL |  |  |  | 
2 | CCC(O)C(C)C1OC1CC(C)/C=C/C=C(\C)C1OC(=O)CC(O)CC(O)C(C)C(OC(C)=O)/C=C/C1C (stereo not drawn) [11107Y] |  | soluble in dimethylsulfoxide, pyridine, methanol and acetone, and slightly soluble in water | 1 to 100 nM |  | 
3 | CCC(O)C(C)C1OC1CC(C)(O)/C=C/C=C(\C)C1OC(=O)CC(O)CCC(C)(O)C(O)/C=C/C1C (stereo not drawn) [11107F] |  |  |  | very weak | 
4 | CCC(=O)C(C)C1OC1CC(C)/C=C/C=C(\C)C1OC(=O)CC(O)CCC(C)(O)C(OC(C)=O)/C=C/C1C (stereo not drawn) [11107C, (8E,12E,14E)-7-Acetoxy-3,6-dihydroxy-6,10,12,16,20-pentamethyl-21-oxo-18,19-epoxytricosa-8,12,14-trien-11-olide] |  |  | 1 to 100 nM | strong successive to 11107B | 8.2 nM
5 | CCC(O)C(C)C1OC1CC(C)/C=C/C=C(\C)C1OC(=O)CC(O)CCC2(CO2)C(OC(C)=O)/C=C/C1C (stereo not drawn) [11107AM] |  | soluble in dimethylsulfoxide, pyridine, methanol and acetone, and slightly soluble in water | 1 to 100 nM |  | 2.6 nM
6 | CC(=O)OC1/C=C/C(C)C(/C(C)=C/C=C/C(C)CC2OC2C(C)C(O)C(C)O)OC(=O)CC(O)CC(O)C1(C)O (stereo not drawn) [11107AZ] |  | soluble in dimethylsulfoxide, pyridine, methanol and acetone, and slightly soluble in water | 1 to 100 nM |  | 
7 | CCC(=O)OC1/C=C/C(C)C(/C(C)=C/C=C/C(C)CC2OC2C(C)C(O)CC)OC(=O)CC(O)CCC1(C)O (stereo not drawn) [11107I] |  | soluble in dimethylsulfoxide, pyridine, methanol and acetone, and slightly soluble in water | 1 to 100 nM |  | 
8 | CC(=O)OC1/C=C/C(C)C(/C(C)=C/C=C/C(C)CC2OC2C(C)O)OC(=O)CC(O)CCC1(C)O (stereo not drawn) [11107R] |  | soluble in dimethylsulfoxide, pyridine, methanol and acetone, and slightly soluble in water | 1 to 100 nM |  | 
9 | CCC(O)C(C)C1OC1CC(C)/C=C/C=C(\C)C1OC(=O)CC(O)CCC(O)(COC(C)=O)C(OC(C)=O)/C=C/C1C (stereo not drawn) [11107N] |  | soluble in dimethylsulfoxide, pyridine, methanol and acetone, and slightly soluble in water | 1 to 100 nM |  | 
10 | CCC(O)C(C)C1OC1CC(C)/C=C/C=C(\C)C1OC(=O)CC(O)CCC(C)(O)C(O)/C=C/C1C (stereo not drawn) [11107 A] | 0.111 µg/mL |  |  |  | 
11 | CCC(O)C(C)C1OC1C(O)C(C)/C=C/C=C(\C)C1OC(=O)CC(O)/C=C/C(C)(O)C(OC(C)=O)/C=C/C1C (stereo not drawn) [11107AX] |  | soluble in dimethylsulfoxide, pyridine, methanol and acetone, and slightly soluble in water | 1 to 100 nM |  | 
12 | CCC(O)C(C)C1OC1CC(C)/C=C/C=C(\C)C1OC(=O)CC(O)CC(O)C(C)(O)C(OC(C)=O)/C=C/C1C (stereo not drawn) [11107K] |  | soluble in dimethylsulfoxide, pyridine, methanol and acetone, and slightly soluble in water | 1 to 100 nM |  | 2.7 nM
13 | CC(=O)OC1/C=C/C(C)C(/C(C)=C/C=C/C(C)CC2OC2C(C)C(O)C(C)O)OC(=O)CC(O)CCC1(C)O (stereo not drawn) [11107AW] |  | soluble in dimethylsulfoxide, pyridine, methanol and acetone, and slightly soluble in water | 1 to 100 nM |  | 
14 | CCC(O)C(C)C1OC1CC(C)/C=C/C=C(\C)C1OC(=O)CC(O)CC(OC(C)=O)C(C)(O)C(OC(C)=O)/C=C/C1C (stereo not drawn) [11107L] |  | soluble in dimethylsulfoxide, pyridine, methanol and acetone, and slightly soluble in water | 1 to 100 nM |  | 
15 | CCC(O)C(C)C1OC1CC(C)/C=C/C=C(\C)C1OC(=O)CC(O)CC(=O)C(C)(O)C(OC(C)=O)/C=C/C1C (stereo not drawn) [11107BH] |  | soluble in dimethylsulfoxide, pyridine, methanol and acetone, and slightly soluble in water | 1 to 100 nM |  | 2.6 nM
16 | CCC(O)C(C)(O)C1OC1CC(C)/C=C/C=C(\C)C1OC(=O)CC(O)CCC(C)(O)C(OC(C)=O)/C=C/C1C (stereo not drawn) [11107E] |  | soluble in dimethylsulfoxide, pyridine, methanol and acetone, and slightly soluble in water | 1 to 100 nM |  | 
17 | CC(=O)OC1/C=C/C(C)C(/C(C)=C/C=C/C(C)C/C=C/C(C)C(O)C(C)O)OC(=O)CC(O)CCC1(C)O (stereo not drawn) [11107AJ] |  | soluble in dimethylsulfoxide, pyridine, methanol and acetone, and slightly soluble in water | 1 to 100 nM |  | 
18 | CC(=O)OC1/C=C/C(C)C(/C(C)=C/C=C/C(C)CC2OC2C(C)C(C)O)OC(=O)CC(O)CCC1(C)O (stereo not drawn) [11107J] |  | soluble in dimethylsulfoxide, pyridine, methanol and acetone, and slightly soluble in water | 1 to 100 nM |  | 5.9 nM
19 | CCC(O)C(C)C1OC1CC/C=C/C=C(\C)C1OC(=O)CC(O)CCC(C)(O)C(OC(C)=O)/C=C/C1C (stereo not drawn) [11107U] |  | soluble in dimethylsulfoxide, pyridine, methanol and acetone, and slightly soluble in water | 1 to 100 nM |  | 
20 | CCC(O)C(C)C1OC1CC(C)/C=C/C=C(\C)C1OC(=O)CC(OC(C)=O)CCC(C)(O)C(OC(C)=O)/C=C/C1C (stereo not drawn) [11107M] |  | soluble in dimethylsulfoxide, pyridine, methanol and acetone, and slightly soluble in water | 1 to 100 nM |  | 
21 | CCC(=O)C(C)C1OC1CC(C)/C=C/C=C(\C)C1OC(=O)CC(O)CCC(C)(O)C(OC(C)=O)/C=C/C1C (stereo not drawn) [11107 C] | 0.003 µg/mL |  |  |  | 
22 | CCC1OC1(C)C(O)C(C)/C=C/C=C(\C)C1OC(=O)CC(O)CCC(C)(O)C(OC(C)=O)/C=C/C1C (stereo not drawn) [11107BG] |  | soluble in dimethylsulfoxide, pyridine, methanol and acetone, and slightly soluble in water | 1 to 100 nM |  | 
23 | CCC(O)C(C)(O)C1OC1CC(C)/C=C/C=C(\C)C1OC(=O)CC(O)CCC(C)(O)C(OC(C)=O)/C=C/C1C (stereo not drawn) [11107 E] | 0.0363 µg/mL |  |  |  | 
24 | CCC(O)C(C)C1OC1CC(C)/C=C/C=C(\C)C1OC(=O)CC(O)/C=C/C(C)(OC(C)=O)C(OC(C)=O)/C=C/C1C (stereo not drawn) [11107AP] |  | soluble in dimethylsulfoxide, pyridine, methanol and acetone, and slightly soluble in water | 1 to 100 nM |  | 
25 | CCC(O)C(C)/C=C/CC(C)/C=C/C=C(\C)C1OC(=O)CC(O)CCC(C)(O)C(OC(C)=O)/C=C/C1C (stereo not drawn) [11107BI] |  | soluble in dimethylsulfoxide, pyridine, methanol and acetone, and slightly soluble in water | 1 to 100 nM |  | 
26 | CCC(O)C(C)C1OC1CC(C)/C=C/C=C/C1OC(=O)CC(O)CCC(C)(O)C(OC(C)=O)/C=C/C1C (stereo not drawn) [11107W] |  | soluble in dimethylsulfoxide, pyridine, methanol and acetone, and slightly soluble in water | 1 to 100 nM |  | 
27 | CCC(O)CC1OC1CC(C)/C=C/C=C(\C)C1OC(=O)CC(O)CCC(C)(O)C(OC(C)=O)/C=C/C1C (stereo not drawn) [11107T] |  | soluble in dimethylsulfoxide, pyridine, methanol and acetone, and slightly soluble in water | 1 to 100 nM |  | 
28 | CC(=O)OC1/C=C/C(C)C(/C(C)=C/C=C/C(C)CC(O)/C=C(\C)C(=O)C(C)O)OC(=O)CC(O)CCC1(C)O (stereo not drawn) [11107Q] |  | soluble in dimethylsulfoxide, pyridine, methanol and acetone, and slightly soluble in water | 1 to 100 nM |  | 
29 | CCC(=O)C(C)C1OC1CC(C)/C=C/C=C(\C)C1OC(=O)CC(O)/C=C/C(C)(O)C(OC(C)=O)/C=C/C1C (stereo not drawn) [11107AL] |  | soluble in dimethylsulfoxide, pyridine, methanol and acetone, and slightly soluble in water | 1 to 100 nM |  | 
30 | CCC(O)C(C)C1OC1CC(C)/C=C/C=C(\C)C1C/C=C/C(OC(C)=O)C(C)(O)CCC(O)CC(=O)O1 (stereo not drawn) [11107Z] |  | soluble in dimethylsulfoxide, pyridine, methanol and acetone, and slightly soluble in water | 1 to 100 nM |  | 
